Results published in ChEMBL document CHEMBL3046017, “Design, synthesis, and docking studies of telmisartan analogs for the treatment of metabolic syndrome” (Med Chem Res, 2009).
Activity calls are given as the source filed them. The rule behind the calls is not given here.

Molecular target: T1, Type-1 angiotensin II receptor A (Rattus norvegicus, UniProt P25095)
T1 sequence (P25095 whole entry): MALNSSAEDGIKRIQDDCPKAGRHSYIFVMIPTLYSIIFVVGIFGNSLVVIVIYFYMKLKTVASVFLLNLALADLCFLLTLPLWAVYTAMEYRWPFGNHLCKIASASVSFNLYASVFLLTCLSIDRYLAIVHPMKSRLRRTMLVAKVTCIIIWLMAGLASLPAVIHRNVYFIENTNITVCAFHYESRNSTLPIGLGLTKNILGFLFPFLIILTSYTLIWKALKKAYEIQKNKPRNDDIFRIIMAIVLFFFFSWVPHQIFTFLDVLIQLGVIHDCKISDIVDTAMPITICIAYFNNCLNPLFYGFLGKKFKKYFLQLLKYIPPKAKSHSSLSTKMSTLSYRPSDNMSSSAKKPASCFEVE
Assay: Displacement of [125I]-SI-Ang-2 from AT1 receptor in Rattus norvegicus Sprague-Dawley (rat) liver membranes after 2 hr
Set-up: species or system Membrane

Ki [µM]	SMILES
> 10	COC(=O)c1ccccc1-c1ccc(Cn2cnc3c(C)cccc32)cc1
> 10	COC(=O)c1ccccc1-c1ccc(Cn2cnc3ccc(-c4nc5ccccc5n4C)cc32)cc1
> 10	COC(=O)c1ccc(-c2ccc(Cn3cnc4ccc(-c5nc6ccccc6n5C)cc43)cc2)c(C(=O)OC)c1
0.65	CCCc1nc2c(C)cc(-c3nc4ccccc4n3C)cc2n1Cc1ccc(-c2ccc(C(=O)OC)cc2C(=O)OC)cc1
0.188	CCCc1nc2c(C)cc(-c3nc4ccccc4n3C)cc2n1Cc1ccc(-c2ccc(C(=O)O)cc2C(=O)O)cc1
0.00023	CCCc1nc2c(C)cc(-c3nc4ccccc4n3C)cc2n1Cc1ccc(-c2ccccc2C(=O)O)cc1 [TELMISARTAN]
> 10	COC(=O)c1ccc(-c2ccc(Cn3c(C)nc4ccc(-c5nc6ccccc6n5C)cc43)cc2)cc1
> 10	COC(=O)c1ccc(-c2ccc(Cn3c(C)nc4ccc(-c5nc6ccccc6n5C)cc43)cc2)c(C(=O)OC)c1
> 10	Cn1c(-c2ccc3ncn(Cc4ccc(-c5ccccc5)cc4)c3c2)nc2ccccc21
> 10	COC(=O)c1ccccc1-c1ccc(Cn2cnc3ccccc32)cc1
> 10	COC(=O)c1ccc(-c2ccc(Cn3cnc4ccc(-c5nc6ccccc6n5C)cc43)cc2)cc1
> 10	COC(=O)c1ccccc1-c1ccc(Cn2c(C)nc3ccc(-c4nc5ccccc5n4C)cc32)cc1

Test system: 3T3-L1
Assay: Induction of adipocyte differentiation in Mus musculus (mouse) 3T3L1 cells at 1 to 5 uM
Format: functional, cell-based

SMILES	Activity
COC(=O)c1ccccc1-c1ccc(Cn2cnc3c(C)cccc32)cc1	inactive
COC(=O)c1ccccc1-c1ccc(Cn2cnc3ccc(-c4nc5ccccc5n4C)cc32)cc1	inactive
COC(=O)c1ccc(-c2ccc(Cn3cnc4ccc(-c5nc6ccccc6n5C)cc43)cc2)c(C(=O)OC)c1	inactive
CCCc1nc2c(C)cc(-c3nc4ccccc4n3C)cc2n1Cc1ccc(-c2ccc(C(=O)OC)cc2C(=O)OC)cc1	inactive
CCCc1nc2c(C)cc(-c3nc4ccccc4n3C)cc2n1Cc1ccc(-c2ccc(C(=O)O)cc2C(=O)O)cc1	inactive
CCCc1nc2c(C)cc(-c3nc4ccccc4n3C)cc2n1Cc1ccc(-c2ccccc2C(=O)O)cc1 [TELMISARTAN]	Active
COC(=O)c1ccc(-c2ccc(Cn3c(C)nc4ccc(-c5nc6ccccc6n5C)cc43)cc2)cc1	inactive
COC(=O)c1ccc(-c2ccc(Cn3c(C)nc4ccc(-c5nc6ccccc6n5C)cc43)cc2)c(C(=O)OC)c1	inactive
Cn1c(-c2ccc3ncn(Cc4ccc(-c5ccccc5)cc4)c3c2)nc2ccccc21	inactive
COC(=O)c1ccccc1-c1ccc(Cn2cnc3ccccc32)cc1	inactive
COC(=O)c1ccc(-c2ccc(Cn3cnc4ccc(-c5nc6ccccc6n5C)cc43)cc2)cc1	inactive
COC(=O)c1ccccc1-c1ccc(Cn2c(C)nc3ccc(-c4nc5ccccc5n4C)cc32)cc1	inactive

Molecular target: T2, Peroxisome proliferator-activated receptor gamma (Homo sapiens) (UniProt P37231)
T2 sequence (whole entry): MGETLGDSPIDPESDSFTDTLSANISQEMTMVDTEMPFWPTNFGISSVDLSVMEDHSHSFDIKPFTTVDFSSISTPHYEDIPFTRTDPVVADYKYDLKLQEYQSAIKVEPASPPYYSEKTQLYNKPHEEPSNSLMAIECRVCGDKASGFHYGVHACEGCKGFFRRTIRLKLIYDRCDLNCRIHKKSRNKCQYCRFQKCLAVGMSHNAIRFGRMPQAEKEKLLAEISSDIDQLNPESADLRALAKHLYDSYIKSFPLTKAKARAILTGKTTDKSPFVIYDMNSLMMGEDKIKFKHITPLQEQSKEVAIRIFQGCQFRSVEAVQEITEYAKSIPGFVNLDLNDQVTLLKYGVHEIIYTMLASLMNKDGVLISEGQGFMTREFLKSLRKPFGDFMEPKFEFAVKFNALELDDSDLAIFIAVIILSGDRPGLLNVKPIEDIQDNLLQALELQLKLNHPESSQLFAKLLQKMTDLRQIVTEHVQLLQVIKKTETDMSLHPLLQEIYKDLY
Assay: Agonist activity at Homo sapiens (human) PPARgamma LBD expressed in African green monkey CV-1 cells co-expressing GAL4 assessed as beta-galactosidase activity at 10 uM after 24 hr by luciferase reporter gene assay relative to rosiglitazone
Format: cell-based

%max	SMILES
4.7%	COC(=O)c1ccccc1-c1ccc(Cn2cnc3c(C)cccc32)cc1
6.3%	COC(=O)c1ccccc1-c1ccc(Cn2cnc3ccc(-c4nc5ccccc5n4C)cc32)cc1
5.7%	COC(=O)c1ccc(-c2ccc(Cn3cnc4ccc(-c5nc6ccccc6n5C)cc43)cc2)c(C(=O)OC)c1
8%	CCCc1nc2c(C)cc(-c3nc4ccccc4n3C)cc2n1Cc1ccc(-c2ccc(C(=O)OC)cc2C(=O)OC)cc1
inactive	CCCc1nc2c(C)cc(-c3nc4ccccc4n3C)cc2n1Cc1ccc(-c2ccc(C(=O)O)cc2C(=O)O)cc1
21.2%	CCCc1nc2c(C)cc(-c3nc4ccccc4n3C)cc2n1Cc1ccc(-c2ccccc2C(=O)O)cc1 [TELMISARTAN]
7.3%	COC(=O)c1ccc(-c2ccc(Cn3c(C)nc4ccc(-c5nc6ccccc6n5C)cc43)cc2)cc1
2.8%	COC(=O)c1ccc(-c2ccc(Cn3c(C)nc4ccc(-c5nc6ccccc6n5C)cc43)cc2)c(C(=O)OC)c1
5.7%	Cn1c(-c2ccc3ncn(Cc4ccc(-c5ccccc5)cc4)c3c2)nc2ccccc21
1.8%	COC(=O)c1ccccc1-c1ccc(Cn2cnc3ccccc32)cc1
3.6%	COC(=O)c1ccc(-c2ccc(Cn3cnc4ccc(-c5nc6ccccc6n5C)cc43)cc2)cc1
6.8%	COC(=O)c1ccccc1-c1ccc(Cn2c(C)nc3ccc(-c4nc5ccccc5n4C)cc32)cc1
